Results on seven compounds are retold here after US4322412A, “Anthracycline glycosides, their preparation, use and compositions thereof” (priority 1979, dated 1982).

≈ marks a conversion by molar mass, not a printed value. Where a name gives a salt, the structure may show the parent alone. Read-outs that look alike come from different tables or passages of the source.

One series has as its system HeLa cells. The experiment in a line: Effect on HeLa Cells Cloning Efficiency In Vitro. The format is cell-based. Conditions: for IC50: Homo sapiens, HeLa, read-out: ID50 (HeLa cells cloning efficiency); for cytotoxicity relative to parent compounds: in words, vs respective parent compounds (Table 1). How it is done:
^(a) HeLa cells were exposed to the test compounds for 24 hours, then
plated. The number of colonies was evaluated 5 days later.

Another series has as its system P-388 ascitic leukemia. Put plainly: Antitumor Activity on Ascitic P 388 Leukemia in Mice. In kind it is in vivo. The following applies: for antitumor activity relative to parent compounds: at the maximal tolerated dose; for in vivo toxicity relative to parent compounds: vs parent compounds; for in vivo toxicity: even at a dose of 200 mg/kg; for antitumor activity relative to daunorubicin: vs daunorubicin in the same experiment. As for the experimental part:
Several of the new compounds of the invention were tested on HeLa cells cloning efficiency in vitro and on P-388 ascitic leukemia in mice, in comparison with daunorubicin and doxorubicin.
Antitumor Activity on Ascitic P 388 Leukemia in Mice
^(a) Mice were treated i.p. on day 1 after tumor cells inoculation.
^(b) Median survival time of treated mice/median survival time of
^(c) Evaluated on the basis of macroscopic autoptic findings.
^(d) Data of two separate experiments.

The mark [1] stands for this setting: 24 hours exposure, then plated, colonies evaluated 5 days later.

With `COc1cccc2c1C(=O)c1c(O)c3c(c(O)c1C2=O)C[C@@](O)(C(C)=O)C[C@@H]3O[C@H]1C[C@H](N)[C@H](O)[C@H](C)O1` [Daunorubicin . HCl, daunorubicin, reference compound], the IC50 with HeLa cells (24 h) amounted to 0.0072 µg/mL. The “Toxic Deaths (macroscopic autoptic findings)” value (“Toxic Deaths” below) is recorded as 0/10 in the series on P-388 ascitic leukemia (2.9 mg/kg i.p. day 1, two separate experiments, first value); 0/8 in the series on P-388 ascitic leukemia (2.9 mg/kg i.p. day 1, two separate experiments, second value); 3/10 in the series with P-388 ascitic leukemia (4.4 mg/kg i.p. day 1, two separate experiments, first value); 0/6 with P-388 ascitic leukemia (4.4 mg/kg i.p. day 1, two separate experiments, second value); 8/10 with P-388 ascitic leukemia (6.6 mg/kg i.p. day 1, two separate experiments, first value); 0/6 with P-388 ascitic leukemia (6.6 mg/kg i.p. day 1, two separate experiments, second value).
Regarding `COc1cccc2c1C(=O)c1c(O)c3c(c(O)c1C2=O)C[C@@](O)(C(=O)CO)C[C@@H]3O[C@H]1C[C@H](N)[C@H](O)[C@H](C)O1` [Doxorubicin . HCl (adriamycin), doxorubicin, reference compound], the IC50 in the series on HeLa cells (24 h) was found to be 0.0095 µg/mL. Also, the “T/C (median survival time of treated mice/control mice × 100)” value in the series on P-388 ascitic leukemia (4.4 mg/kg i.p. day 1) is listed as 219%; with P-388 ascitic leukemia (6.6 mg/kg i.p. day 1), 223%; in the series on P-388 ascitic leukemia (10 mg/kg i.p. day 1), 180%. Further, the “Toxic Deaths” value in the series with P-388 ascitic leukemia (4.4 mg/kg i.p. day 1) is 0/8; in the series on P-388 ascitic leukemia (6.6 mg/kg i.p. day 1) it was 0/8; in the series with P-388 ascitic leukemia (10 mg/kg i.p. day 1) it was 4/8.
Regarding `COc1cccc2c1C(=O)c1c(cc3c(c1O)[C@@H](O[C@H]1C[C@H](N)[C@H](OC)[C@H](C)O1)C[C@](O)(C(C)=O)C3)C2=O` [II, 4'-O-methyl-11-deoxy-daunorubicin], the IC50 with HeLa cells (setting [1]) stood at 0.066 µg/mL (≈ 0.126 µM). In the series on HeLa cells, the “cytotoxicity relative to parent compounds” value is recorded as “less cytotoxic than their respective parent compounds”. In addition, in the series with P-388 ascitic leukemia (25 mg/kg i.p. day 1), the “T/C (median survival time of treated mice/control mice × 100)” value is recorded as 180% and the “Toxic Deaths” value is 0/9. In addition, in the series with P-388 ascitic leukemia (50 mg/kg i.p. day 1), the “T/C (median survival time of treated mice/control mice × 100)” value is 225% and the “Toxic Deaths” value was 1/9. In the series with P-388 ascitic leukemia (in words), the “antitumor activity relative to parent compounds” value was “comparable to that of the parent compounds” and the “in vivo toxicity relative to parent compounds” value is “less toxic in vivo”.
For the compound `COc1cccc2c1C(=O)c1c(cc3c(c1O)[C@@H](O[C@H]1C[C@H](N)[C@H](OC)[C@H](C)O1)C[C@](O)(C(=O)CO)C3)C2=O` [III, 4'-O-methyl-11-deoxy-doxorubicin], the IC50 with HeLa cells (setting [1]) was 0.022 µg/mL (≈ 0.0406 µM). The “cytotoxicity relative to parent compounds” value in the series on HeLa cells was “less cytotoxic than their respective parent compounds”. Also, in the series on P-388 ascitic leukemia (6.6 mg/kg i.p. day 1), the “T/C (median survival time of treated mice/control mice × 100)” value was determined as 195% and the “Toxic Deaths” value is recorded as 0/8. Further, in the series on P-388 ascitic leukemia (10 mg/kg i.p. day 1), the “T/C (median survival time of treated mice/control mice × 100)” value is on record as 209% and the “Toxic Deaths” value is 0/8. For the same compound, in the series on P-388 ascitic leukemia (15 mg/kg i.p. day 1), the “T/C (median survival time of treated mice/control mice × 100)” value is 238% and the “Toxic Deaths” value is given as 0/7. Besides, in the series on P-388 ascitic leukemia (22.5 mg/kg i.p. day 1), the “T/C (median survival time of treated mice/control mice × 100)” value is recorded as 214% and the “Toxic Deaths” value is recorded as 0/10. Further, in the series with P-388 ascitic leukemia (in words), the “range of active and non-toxic doses” value is “wide range of active and non-toxic doses”; the “antitumor activity relative to parent compounds” value is reported as “comparable to that of the parent compounds”; the “in vivo toxicity relative to parent compounds” value is recorded as “less toxic in vivo”.
For `COc1cccc2c1C(=O)c1c(cc3c(c1OC)[C@@H](O[C@H]1C[C@H](N)[C@H](OC)[C@H](C)O1)C[C@](O)(C(C)=O)C3)C2=O` [IV, 4',6-di-O-methyl-11-deoxy-daunorubicin], in the series with HeLa cells (setting [1]), the IC50 is 1 µg/mL (≈ 1.85 µM).
`COc1cccc2c1C(=O)c1c(O)c3c(c(OC)c1C2=O)C[C@@](O)(C(C)=O)C[C@@H]3O[C@H]1C[C@H](N)[C@H](O)[C@H](C)O1` [VI, 11-O-methyl-daunorubicin]: the IC50 in the series on HeLa cells (setting [1]) is 0.4 µg/mL (≈ 0.739 µM). Besides, the “cytotoxicity relative to parent compounds” value in the series on HeLa cells is “markedly less cytotoxic than are their parent compounds”. In the series on P-388 ascitic leukemia (100 mg/kg i.p. day 1), the “T/C (median survival time of treated mice/control mice × 100)” value was found to be 111% and the “Toxic Deaths” value was 0/4. In the series on P-388 ascitic leukemia (200 mg/kg i.p. day 1), the “T/C (median survival time of treated mice/control mice × 100)” value came to 122% and the “Toxic Deaths” value is 0/3. Besides, in the series with P-388 ascitic leukemia (in words), the in vivo toxicity result was “not toxic” and the “antitumor activity relative to daunorubicin” value is reported as “comparable to that of daunorubicin”.
Regarding `COc1cccc2c1C(=O)c1c(O)c3c(c(OC)c1C2=O)C[C@@](O)(C(C)=O)C[C@@H]3O[C@H]1C[C@H](N)[C@H](OC)[C@H](C)O1` [VIII, 4',11-di-O-methyl-daunorubicin], the IC50 with HeLa cells (setting [1]) was determined as 0.5 µg/mL (≈ 0.9 µM). Further, the “cytotoxicity relative to parent compounds” value in the series on HeLa cells is listed as “markedly less cytotoxic than are their parent compounds”. Besides, in the series on P-388 ascitic leukemia (100 mg/kg i.p. day 1), the “T/C (median survival time of treated mice/control mice × 100)” value is given as 111% and the “Toxic Deaths” value is 0/6. In the series with P-388 ascitic leukemia (200 mg/kg i.p. day 1), the “T/C (median survival time of treated mice/control mice × 100)” value was 122% and the “Toxic Deaths” value is 0/6. Also, in the series on P-388 ascitic leukemia (in words), the in vivo toxicity entry is listed as “not toxic” and the “antitumor activity relative to daunorubicin” value is recorded as “comparable to that of daunorubicin”.
